Source: patent US20090304746A1 (priority 1993, published 2009)
No end group written: not given here.

What was measured:
HLA-B*3501 = HLA-B*3501 (Homo sapiens, UniProt P01889, A329T/A93T/A95T/C349S/D201E/D98Y/E176V/E187L/E204Q/E69T/I218V/K202T/L119I/Q94N/R155S/R180L/S121R/S35A/S48A/T118I/V127L/V306I/V36M/Y140S/Y91F); assay: HLA class I binding assay, B*3501
HLA-B*5301 = HLA-B*5301 (Homo sapiens, UniProt P01889, A329T/A93T/A95T/C349S/D201E/D98Y/E176V/E187L/E204Q/E69T/G107R/I218V/K202T/L105A/L119I/N104I/Q94N/R106L/R155S/R180L/S101N/S121R/S35A/S48A/T118I/V127L/V306I/V36M/Y140S/Y91F); assay: HLA class I binding assay, B*5301
[1] = test system: PBMC from HCV-infected patients; assay: CTL recall: recognition in vitro by PBMC from HCV-infected patients, 51Cr release; type: cell-based, human
DRB1*0301 (DR3) = molecular target: T1, DRB1*0301 (DR3) (Homo sapiens, UniProt P01903+P01911, A100K/A102G/A103R/A169T/F55Y/I96L/K41T/L162R/M171V/P40S/Q125H/Q178H/Q39Y/R42S/S66N/T106N/T262R/W38E/Y61H); assay: HLA class II binding assay, DRB1*0301 (DR3); details: DR3 binding affinity, DR3 motif peptides
T1 construct: endogenous in cells; host or cells: MAT

[2] = A3-supertype binders, positive responses over total number examined
[3] = A3-supertype binders, positive responses over total number of contacts examined
[4] = A3-supertype binders, positive responses over total number of patients examined
[5] = A3-supertype binders, sum over all groups, positive over total examined
[6] = sum over the four human data sets

Compound | IC50 (HLA-B*3501) | IC50 (HLA-B*5301) | Immunogenicity Human, Chisari [1, 2] | Immunogenicity Human, Pape [1, 2] | Immunogenicity Human, Barnaba; contacts [1, 3] | Immunogenicity Human, Barnaba; patients [1, 4] | Immunogenicity Human, overall [1, 5] | Immunogenicity Human, Barnaba; patients ([1]; responders/tested) | Immunogenicity Human, Chisari ([1]; responders/tested) | Immunogenicity Human, Pape ([1]; responders/tested) | Immunogenicity Human, Barnaba; contacts ([1]; responders/tested, contacts) | Immunogenicity Human, overall [1, 6] | IC50 (DRB1*0301 (DR3))
CC(C)C[C@H](NC(=O)[C@H](CCCNC(=N)N)NC(=O)[C@@H]1CCCN1C(=O)CNC(=O)[C@H](CCCNC(=N)N)NC(=O)[C@H](CCCNC(=N)N)NC(=O)[C@@H]1CCCN1C(=O)[C@@H](N)CC(C)C)C(=O)O [Peptide 29.0040] | > 30 µM | > 30 µM |  |  |  |  |  |  |  |  |  |  | 
C[C@@H](O)[C@H](NC(=O)[C@@H](N)CCCCN)C(=O)N[C@@H](CO)C(=O)N[C@@H](CCC(=O)O)C(=O)N[C@@H](CCCNC(=N)N)C(=O)N[C@@H](CO)C(=O)N[C@@H](CCC(N)=O)C(=O)N1CCC[C@H]1C(=O)N[C@@H](CCCNC(=N)N)C(=O)O [Peptide 1.0952] |  |  | 3/12 | 0/6 | 1/4 | 2/16 | 6/38 | 2/16 | 3/12 | 0/6 | 1/4 | 6/38 | 
CC[C@H](C)[C@H](NC(=O)[C@H](CCSC)NC(=O)[C@H](CCCNC(=N)N)NC(=O)[C@H](C)NC(=O)[C@H](Cc1c[nH]c2ccccc12)NC(=O)[C@H](CC(C)C)NC(=O)[C@@H](NC(=O)[C@@H]1CCCN1C(=O)[C@H](C)N)[C@@H](C)O)C(=O)N[C@@H](CC(C)C)C(=O)N[C@@H](CCSC)C(=O)O [Peptide 29.0118] | > 30 µM | > 30 µM |  |  |  |  |  |  |  |  |  |  | 
CC[C@H](C)[C@H](NC(=O)[C@H](CC(C)C)NC(=O)[C@H](CCCNC(=N)N)NC(=O)[C@H](C)NC(=O)[C@@H]1CCCN1C(=O)[C@@H](N)CCCCN)C(=O)N[C@H](C(=O)N[C@@H](Cc1ccccc1)C(=O)O)C(C)C [Peptide 29.0037] | > 30 µM | > 30 µM |  |  |  |  |  |  |  |  |  |  | 
CSCC[C@H](NC(=O)[C@H](CCCNC(=N)N)NC(=O)[C@H](C)NC(=O)[C@H](Cc1c[nH]c2ccccc12)NC(=O)[C@H](CC(C)C)NC(=O)[C@@H](NC(=O)[C@@H]1CCCN1C(=O)[C@H](C)N)[C@@H](C)O)C(=O)O [Peptide 29.0031] | > 30 µM | > 30 µM |  |  |  |  |  |  |  |  |  |  | 
CC(C)C[C@H](NC(=O)[C@@H](N)CCC(N)=O)C(=O)N[C@@H](Cc1ccccc1)C(=O)N[C@H](C(=O)N[C@@H](Cc1ccccc1)C(=O)N[C@@H](CO)C(=O)N1CCC[C@H]1C(=O)N[C@@H](CCCNC(=N)N)C(=O)N[C@@H](CCCNC(=N)N)C(=O)O)[C@@H](C)O [Peptide 1.0955] |  |  | 6/12 | 1/6 | 0/4 | 1/16 | 8/38 | 1/16 | 6/12 | 1/6 | 0/4 | 8/38 | 
CC(C)C[C@H](NC(=O)[C@H](C)NC(=O)CNC(=O)[C@H](C)NC(=O)[C@@H](NC(=O)CN)C(C)C)C(=O)N[C@H](C(=O)N[C@@H](C)C(=O)N[C@@H](Cc1ccccc1)C(=O)N[C@@H](CCCCN)C(=O)O)C(C)C [Peptide 1073.10] |  |  | 6/12 | 2/6 | 0/4 | 3/16 | 11/38 | 3/16 | 6/12 | 2/6 | 0/4 | 11/38 | 
CC[C@H](C)[C@H](NC(=O)[C@H](Cc1ccc(O)cc1)NC(=O)[C@@H]1CCCN1C(=O)[C@@H](N)CC(C)C)C(=O)N[C@@H](CCC(=O)O)C(=O)N[C@@H](CCC(N)=O)C(=O)NCC(=O)N[C@@H](CCSC)C(=O)O [Peptide 29.0042] | > 30 µM | > 30 µM |  |  |  |  |  |  |  |  |  |  | 
FPGCSFSIF [Peptide 1145.13] |  | 0.0032 µM |  |  |  |  |  |  |  |  |  |  | 
CC[C@H](C)[C@H](N)C(=O)N1CCC[C@H]1C(=O)N[C@@H](Cc1ccccc1)C(=O)N[C@@H](Cc1ccc(O)cc1)C(=O)NCC(=O)N[C@@H](CCCCN)C(=O)N[C@@H](C)C(=O)N[C@H](C(=O)O)[C@@H](C)CC [29.0035/1260.04] | > 30 µM | > 30 µM |  |  |  |  |  |  |  |  |  |  | 
CSCC[C@H](NC(=O)[C@H](CC(C)C)NC(=O)[C@H](C)NC(=O)[C@H](CC(=O)O)NC(=O)[C@@H](NC(=O)[C@H](C)NC(=O)[C@@H](NC(=O)[C@@H](NC(=O)[C@@H](NC(=O)[C@@H](N)C(C)C)C(C)C)C(C)C)C(C)C)[C@@H](C)O)C(=O)N[C@H](C(=O)NCC(=O)N[C@@H](Cc1ccc(O)cc1)C(=O)N[C@H](C(=O)NCC(=O)O)[C@@H](C)O)[C@@H](C)O [CH35.0106] |  |  |  |  |  |  |  |  |  |  |  |  | ≤ 1 µM
CC(C)C[C@H](NC(=O)[C@H](C)NC(=O)CNC(=O)[C@H](C)NC(=O)[C@@H](N)C(C)C)C(=O)N[C@H](C(=O)N[C@@H](C)C(=O)N[C@@H](Cc1ccccc1)C(=O)N[C@@H](CCCCN)C(=O)O)C(C)C [Peptide 24.0090] |  |  | 6/12 | 0/4 | 1/4 | 4/16 | 11/38 | 4/16 | 6/12 | 0/4 | 1/4 | 11/38 | 
CSCC[C@H](NC(=O)[C@@H](N)CCCNC(=N)N)C(=O)N[C@@H](Cc1ccc(O)cc1)C(=O)N[C@H](C(=O)NCC(=O)NCC(=O)N[C@H](C(=O)N[C@@H](CCC(=O)O)C(=O)N[C@@H](Cc1c[nH]cn1)C(=O)N[C@@H](CCCNC(=N)N)C(=O)O)C(C)C)C(C)C [Peptide 1073.13] |  |  | 4/12 | 1/6 | 1/4 | 5/16 | 11/38 | 5/16 | 4/12 | 1/6 | 1/4 | 11/38 | 
CC(C)C[C@H](NC(=O)[C@@H](N)CCCNC(=N)N)C(=O)NCC(=O)N[C@H](C(=O)N[C@@H](CCCNC(=N)N)C(=O)N[C@@H](C)C(=O)N[C@H](C(=O)N[C@@H](CCCNC(=N)N)C(=O)N[C@@H](CCCCN)C(=O)O)[C@@H](C)O)C(C)C [Peptide 1073.11] |  |  | 7/12 | 1/6 | 1/4 | 4/16 | 13/38 | 4/16 | 7/12 | 1/6 | 1/4 | 13/38 | 
CC[C@H](C)[C@H](NC(=O)[C@@H](N)CC(C)C)C(=O)N[C@@H](Cc1ccccc1)C(=O)N[C@@H](CS)C(=O)N[C@@H](Cc1c[nH]cn1)C(=O)N[C@@H](CO)C(=O)N[C@@H](CCCCN)C(=O)N[C@@H](CCCCN)C(=O)N[C@@H](CCCCN)C(=O)O [Peptide 1.0123] |  |  | 4/12 | 2/6 | 1/4 | 6/16 | 13/38 | 6/16 | 4/12 | 2/6 | 1/4 | 13/38 | 
